Test results taken from patent US20250195521A1 (Revolution Medicines, Inc., priority 2020, published 2025).
Several values for one entry are separate records, joined by “and”; a condition that tells them apart may be missing. Identical values can stand only once. Like-named read-outs stand apart in the source and are kept apart here.

Columns and labels:
[1] = test system: Capan-1 cells (K-Ras G12V); experiment: CellTiter-Glo cell viability, Capan-1; assay type: cell-based, human; settings: K-Ras G12V, 5-day treatment, read-out: Capan-1 Cell Viability IC50
Summary of the method: (§1)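 Viability read by luminescence on day 5 after direct compound addition to cells, following ~30 min room-temperature equilibration. Values expressed as percent of mean DMSO signal, curves fitted with a four-parameter logistic model.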

[2] = target: KRAS G13D (Homo sapiens (Human), UniProt P01116+P62937, G13D); experiment: Ras-Raf disruption/FRET/MOA assay (BRAF RBD, Cyclophilin A); assay type: biochemical; settings: read-out: KRAS G13D FRET data IC50
Summary of the method: (§2)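 25 μM tagless Cyclophilin A, 12.5 nM His6-Ras-GMPPNP and 50 nM GST-BRAF RBD in HEPES pH 7.3 buffer with 5 mM MgCl2, with compound (10-point 3-fold series from 30 μM final) for 3 h at 25 °C. Anti-His Eu and anti-GST APC then added for 1.5 h. IC50 from TR-FRET ratio decrease versus DMSO.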

[3] = target: KRAS G12D (Homo sapiens (Human), UniProt P01116+P62937, G12D); experiment: as above; assay type: biochemical; settings: read-out: KRAS G12D FRET IC50
Summary of the method: as §2

[4] = target: KRAS G12V (Homo sapiens (Human), UniProt P01116+P62937, G12V); experiment: as above; assay type: biochemical; settings: read-out: KRAS G12V FRET IC50
Summary of the method: as §2

[5] = target: KRAS Q61H (Homo sapiens (Human), UniProt P01116+P62937, Q61H); experiment: as above; assay type: biochemical
Summary of the method: as §2

[6] = target: NRAS G12C (Homo sapiens (Human), UniProt P01111+P62937, G12C); experiment: as above; assay type: biochemical; settings: read-out: NRAS G12C FRET data IC50
Summary of the method: (§3)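 Measured: compound-facilitated Cyclophilin A:Ras complex blocking RAF RBD binding. Conditions: 12.5 nM Ras-GMPPNP, 50 nM BRAF RBD, 25 μM CypA, 3 h plus 1.5 h detection. Output: IC50 from TR-FRET ratio.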

[7] = target: KRAS G13C (Homo sapiens (Human), UniProt P01116+P62937, G13C); experiment: as above; assay type: biochemical; settings: read-out: KRAS G13C FRET IC50
Summary of the method: as §2

[8] = target: KRAS WT (Homo sapiens (Human), UniProt P01116+P62937); experiment: as above; assay type: biochemical; settings: read-out: KRAS WT FRET data IC50
Summary of the method: as §2

[9] = target: NRAS Q61R (Homo sapiens (Human), UniProt P01111+P62937, Q61R); experiment: as above; assay type: biochemical
Summary of the method: as §3

[10] = target: NRAS WT (Homo sapiens (Human), UniProt P01111+P62937); experiment: as above; assay type: biochemical
Summary of the method: as §3

[11] = target: KRAS G12C (Homo sapiens (Human), UniProt P01116+P62937, G12C); experiment: as above; assay type: biochemical; settings: read-out: KRAS G12C FRET IC50
Summary of the method: as §2

[12] = target: KRAS G12S (Homo sapiens (Human), UniProt P01116+P62937, G12S); experiment: as above; assay type: biochemical; settings: read-out: KRAS G12S FRET IC50
Summary of the method: as §2

[13] = target: NRAS Q61K (Homo sapiens (Human), UniProt P01111+P62937, Q61K); experiment: as above; assay type: biochemical
Summary of the method: as §3

[14] = test system: NCI-H358 cells (K-Ras G12C); experiment: CellTiter-Glo cell viability, NCI-H358; assay type: cell-based, human; settings: K-Ras G12C, 5-day treatment, read-out: H358 Cell Viability IC50
Summary of the method: as §1

[15] = test system: K-Ras G12C (NCI-H358 cells); experiment: Potency assay: pERK in NCI-H358 cells; assay type: cell-based, human; settings: Homo sapiens; NCI-H358 cells, 4 hours; read-out: pERK EC50 (H358 KRAS G12C)
Summary of the method: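 Cells plated the day before were exposed for 4 h at 37° C, 5% CO2 to a 10-point, 3-fold DMSO dilution series (10 mM top stock), in duplicate. Phospho-ERK was read by AlphaLISA SureFire Ultra or by In-Cell Western with DRAQ5 DNA stain, and IC50 came from a 4-parameter sigmoidal fit.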

[16] = target: K-Ras G12C(GMP-PNP) binding to BRAF RBD (Homo sapiens (Human), UniProt P01116+P62937, G12C); experiment: Disruption of BRAF RBD interaction with K-Ras (FRET / MOA assay), K-Ras G12C; assay type: biochemical; settings: read-out: KRAS G12C FRET IC50
Summary of the method: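 Cpd 10-pt 3-fold dilution, top 30 μM final; Ras/CypA/BRAF RBD mix 3 h, 25° C. Add anti-His Eu-W1024 10 nM + anti-GST APC 50 nM final, 1.5 h. Readout TR-FRET ratio decrease vs DMSO → IC50.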

[17] = test system: NCI-H358 (K-Ras G12C); experiment: CellTiter-Glo cell viability assay, NCI-H358; assay type: cell-based, human; settings: Homo sapiens, NCI-H358, 120 h, 5-day treatment; read-out: H358 Cell Viability assay data (K-Ras G12C, IC50)
Summary of the method: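 Viability read-out was luminescent (CellTiter-Glo) on day 5 of compound exposure in K-Ras G12C NCI-H358 cells. Values were expressed as percent of mean DMSO signal and fitted with a four-parameter logistic curve.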

Chain of NRAS Q61R (P01111 whole entry Q61R): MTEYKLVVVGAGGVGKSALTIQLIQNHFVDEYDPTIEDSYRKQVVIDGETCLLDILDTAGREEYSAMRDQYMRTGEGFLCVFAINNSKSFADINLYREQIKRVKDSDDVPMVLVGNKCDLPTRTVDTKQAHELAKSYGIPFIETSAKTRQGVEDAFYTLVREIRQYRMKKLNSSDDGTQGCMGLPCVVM
Chain of NRAS Q61R (P62937 whole entry): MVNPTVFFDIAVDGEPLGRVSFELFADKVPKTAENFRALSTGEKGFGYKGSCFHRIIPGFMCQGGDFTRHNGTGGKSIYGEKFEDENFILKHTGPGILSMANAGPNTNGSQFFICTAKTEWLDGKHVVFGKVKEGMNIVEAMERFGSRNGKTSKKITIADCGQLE
Chain of KRAS G12S (P01116 other isoform, or with tags, fused parts or gaps G12S): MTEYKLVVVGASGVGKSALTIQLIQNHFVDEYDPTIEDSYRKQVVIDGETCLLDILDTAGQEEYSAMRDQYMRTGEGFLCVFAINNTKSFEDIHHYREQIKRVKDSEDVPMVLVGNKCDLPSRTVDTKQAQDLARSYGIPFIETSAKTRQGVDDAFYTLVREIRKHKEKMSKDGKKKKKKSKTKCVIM
Chain of KRAS G12S (P62937 whole entry): as the sequence (P62937 whole entry) above
Chain of KRAS G13C (P01116 other isoform, or with tags, fused parts or gaps G13C): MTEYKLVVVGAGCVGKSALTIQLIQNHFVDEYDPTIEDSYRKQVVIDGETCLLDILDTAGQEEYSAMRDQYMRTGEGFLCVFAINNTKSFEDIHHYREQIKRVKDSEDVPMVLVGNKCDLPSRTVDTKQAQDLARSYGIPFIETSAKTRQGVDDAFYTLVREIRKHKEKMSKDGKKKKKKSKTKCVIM
Chain of KRAS G13C (P62937 whole entry): as the sequence (P62937 whole entry) above
Chain of NRAS G12C (P01111 whole entry G12C): as the sequence (P01111 whole entry Q61R) above, with G12C, R61Q counted along it
Chain of NRAS G12C (P62937 whole entry): as the sequence (P62937 whole entry) above
Chain of NRAS WT (P01111 whole entry): as the sequence (P01111 whole entry Q61R) above, with R61Q counted along it
Chain of NRAS WT (P62937 whole entry): as the sequence (P62937 whole entry) above
Chain of NRAS Q61K (P01111 whole entry Q61K): as the sequence (P01111 whole entry Q61R) above, with R61K counted along it
Chain of NRAS Q61K (P62937 whole entry): as the sequence (P62937 whole entry) above
Chain of KRAS G12D (P01116 other isoform, or with tags, fused parts or gaps G12D): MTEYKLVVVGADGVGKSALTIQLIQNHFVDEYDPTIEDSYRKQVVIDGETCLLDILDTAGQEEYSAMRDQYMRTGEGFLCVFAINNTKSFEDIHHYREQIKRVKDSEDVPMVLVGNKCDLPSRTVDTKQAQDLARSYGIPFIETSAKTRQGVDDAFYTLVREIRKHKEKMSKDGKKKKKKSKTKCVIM
Chain of KRAS G12D (P62937 whole entry): as the sequence (P62937 whole entry) above
Chain of KRAS G13D (P01116 other isoform, or with tags, fused parts or gaps G13D): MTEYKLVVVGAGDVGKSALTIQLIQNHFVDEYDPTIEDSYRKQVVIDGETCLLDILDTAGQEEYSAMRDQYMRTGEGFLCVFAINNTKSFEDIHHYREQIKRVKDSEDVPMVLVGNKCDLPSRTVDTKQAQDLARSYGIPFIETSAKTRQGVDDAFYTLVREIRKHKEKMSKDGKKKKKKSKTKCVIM
Chain of KRAS G13D (P62937 whole entry): as the sequence (P62937 whole entry) above
Chain of KRAS Q61H (P01116 other isoform, or with tags, fused parts or gaps Q61H): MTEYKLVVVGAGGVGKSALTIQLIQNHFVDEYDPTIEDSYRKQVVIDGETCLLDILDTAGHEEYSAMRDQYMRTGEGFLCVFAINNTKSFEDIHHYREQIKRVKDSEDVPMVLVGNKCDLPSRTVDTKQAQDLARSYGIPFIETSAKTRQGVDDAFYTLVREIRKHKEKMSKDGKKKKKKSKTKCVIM
Chain of KRAS Q61H (P62937 whole entry): as the sequence (P62937 whole entry) above
Chain of KRAS G12C (P01116-2 other isoform, or with tags, fused parts or gaps G12C): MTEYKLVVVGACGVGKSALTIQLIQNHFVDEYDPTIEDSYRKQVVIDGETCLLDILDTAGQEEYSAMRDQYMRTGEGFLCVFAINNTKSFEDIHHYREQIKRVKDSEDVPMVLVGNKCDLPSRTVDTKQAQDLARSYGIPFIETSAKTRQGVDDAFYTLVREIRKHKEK
Chain of KRAS G12C (P62937 whole entry): as the sequence (P62937 whole entry) above
Chain of KRAS WT (P01116 other isoform, or with tags, fused parts or gaps): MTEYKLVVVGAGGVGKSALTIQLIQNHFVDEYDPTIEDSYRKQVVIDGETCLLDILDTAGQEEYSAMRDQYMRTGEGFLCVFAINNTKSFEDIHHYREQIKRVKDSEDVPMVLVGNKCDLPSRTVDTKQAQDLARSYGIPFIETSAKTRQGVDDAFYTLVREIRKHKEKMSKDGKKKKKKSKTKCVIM
Chain of KRAS WT (P62937 whole entry): as the sequence (P62937 whole entry) above
Chain of KRAS G12V (P01116 other isoform, or with tags, fused parts or gaps G12V): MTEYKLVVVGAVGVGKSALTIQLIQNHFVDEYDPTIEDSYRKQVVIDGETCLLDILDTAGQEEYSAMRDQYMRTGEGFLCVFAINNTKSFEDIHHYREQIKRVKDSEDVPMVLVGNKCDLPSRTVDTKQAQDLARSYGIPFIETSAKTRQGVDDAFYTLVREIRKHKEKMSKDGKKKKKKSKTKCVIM
Chain of KRAS G12V (P62937 whole entry): as the sequence (P62937 whole entry) above
Chain of K-Ras G12C(GMP-PNP) binding to BRAF RBD (P01116 other isoform, or with tags, fused parts or gaps G12C): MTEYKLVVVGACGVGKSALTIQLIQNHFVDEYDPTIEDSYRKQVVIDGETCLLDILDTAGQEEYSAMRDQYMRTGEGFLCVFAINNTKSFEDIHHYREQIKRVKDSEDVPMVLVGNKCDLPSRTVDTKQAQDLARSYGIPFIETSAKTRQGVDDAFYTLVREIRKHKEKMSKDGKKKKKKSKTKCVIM
Chain of K-Ras G12C(GMP-PNP) binding to BRAF RBD (P62937 whole entry): as the sequence (P62937 whole entry) above

Row | Compound | IC50 ([1]; Homo sapiens, CAPAN-1, 120 h) [nM] | IC50 [2] [nM] | IC50 [3] | IC50 [4] [nM] | IC50 [5] [nM] | IC50 [6] [nM] | IC50 [7] [nM] | IC50 [8] | IC50 [9] | IC50 [10] | IC50 [11] | IC50 [12] [nM] | IC50 [13] [nM] | IC50 [14] [nM] | IC50 [1] [nM] | IC50 ([14]; Homo sapiens, NCI-H358, 120 h) [nM] | EC50 [15] [nM] | IC50 [16] [nM] | IC50 [17] [nM]
1 | CCn1c(-c2cccnc2[C@H](C)OC)c2c3cc(ccc31)-c1cc(O)cc(c1)C[C@H](NC(=O)CC(C)c1ccncc1)C(=O)N1CCC[C@H](N1)C(=O)OCC(C)(C)C2 (some centres unmarked) [Compound A178] | > 10000 | 1000 to 10000 | 1000 to 10000 nM and > 10000 nM | 1000 to 10000 | 100 to 1000 | 1000 to 10000 | 100 to 1000 | 100 to 1000 nM and 1000 to 10000 nM | 1000 to 10000 nM and > 10000 nM | 100 to 1000 nM and 1000 to 10000 nM | 100 to 1000 nM and 1000 to 10000 nM | 1000 to 10000 | 1000 to 10000 |  |  |  |  |  | 
2 | CCn1c(-c2cccnc2[C@H](C)OC)c2c3cc(ccc31)-c1cc(O)cc(c1)C[C@H](NC(=O)[C@@H]1[C@@H](C)CCN1C(C)=O)C(=O)N1CCC[C@H](N1)C(=O)OCC(C)(C)C2 [Compound A208] | > 10000 | 1000 to 10000 | 1000 to 10000 nM | 1000 to 10000 | 100 to 1000 | 1000 to 10000 | 100 to 1000 | 100 to 1000 nM | 1000 to 10000 nM | 100 to 1000 nM | 100 to 1000 nM | 1000 to 10000 | 100 to 1000 |  |  |  |  |  | 
3 | CCn1c(-c2cccnc2[C@H](C)OC)c2c3cc(ccc31)-c1cc(O)cc(c1)C[C@H](NC(=O)[C@H](C(C)C)N(C)C(=O)C1CCC(=O)N1C)C(=O)N1CCC[C@H](N1)C(=O)OCC(C)(C)C2 (some centres unmarked) [Compound A230] | 1000 to 10000 | 100 to 1000 | 100 to 1000 nM | 10 to 100 | 10 to 100 | 10 to 100 | 10 to 100 | 10 to 100 nM | 100 to 1000 nM | 10 to 100 nM | 10 to 100 nM | 10 to 100 | 100 to 1000 |  |  |  |  |  | 
4 | CCn1c(-c2cccnc2[C@H](C)OC)c2c3cc(ccc31)-c1csc(n1)C[C@H](NC(=O)[C@H](C(C)C)N(C)C(=O)N1CC(OC)C1)C(=O)N1CCC[C@H](N1)C(=O)OCC(C)(C)C2 [Compound A354] |  | 1000 to 10000 | 1000 to 10000 nM | 100 to 1000 | 100 to 1000 | 100 to 1000 | 100 to 1000 |  |  |  | 100 to 1000 nM | 100 to 1000 | 100 to 1000 | 100 to 1000 | 100 to 1000 |  |  |  | 
5 | CCn1c(-c2cccnc2[C@H](C)OC)c2c3cc(ccc31)-c1csc(n1)C[C@H](NC(=O)N1CCC1)C(=O)N1CCC[C@H](N1)C(=O)OCC(C)(C)C2 [Compound A368] | 100 to 1000 | 1000 to 10000 | 1000 to 10000 nM | 100 to 1000 | 100 to 1000 | 100 to 1000 | 100 to 1000 | 100 to 1000 nM |  | 100 to 1000 nM | 100 to 1000 nM | 100 to 1000 | 100 to 1000 |  |  | 100 to 1000 |  |  | 
6 | CCn1c(-c2cccnc2[C@H](C)OC)c2c3cc(ccc31)-c1csc(n1)C[C@H](NC(=O)[C@H](C(C)C)N(C)C(=O)[C@H]1[C@@H]3CNC[C@@H]31)C(=O)N1CCC[C@H](N1)C(=O)OCC(C)(C)C2 [Compound A448] | > 10000 | 1000 to 10000 | 1000 to 10000 nM |  |  | 1000 to 10000 | 1000 to 10000 | 1000 to 10000 nM | 1000 to 10000 nM | 1000 to 10000 nM | 1000 to 10000 nM | 1000 to 10000 | 1000 to 10000 |  |  |  | < 5000 |  | 
7 | CCn1c(-c2cccnc2[C@H](C)OC)c2c3cc(ccc31)-c1csc(n1)C[C@H](NC(=O)[C@H](C(C)C)N(C)C(=O)N1C[C@@H]3CCN(C)C[C@@H]31)C(=O)N1CCC[C@H](N1)C(=O)OCC(C)(C)C2 [Compound A516] | 100 to 1000 | 1000 to 10000 | 1000 to 10000 nM | 1000 to 10000 |  | 1000 to 10000 | 1000 to 10000 | 1000 to 10000 nM | 1000 to 10000 nM | 1000 to 10000 nM | 1000 to 10000 nM | 1000 to 10000 | 1000 to 10000 |  |  |  |  | 1000 to 10000 | > 10000
8 | CCn1c(-c2cccnc2[C@H](C)OC)c2c3cc(ccc31)-c1csc(n1)C[C@H](NC(=O)[C@H](C(C)C)N(C)C(=O)N1C[C@H]3CCN(C)C[C@H]31)C(=O)N1CCC[C@H](N1)C(=O)OCC(C)(C)C2 [Compound A517] | 100 to 1000 | 1000 to 10000 | 1000 to 10000 nM | 1000 to 10000 |  | 1000 to 10000 | 1000 to 10000 | 1000 to 10000 nM | 1000 to 10000 nM | 1000 to 10000 nM | 1000 to 10000 nM | 1000 to 10000 | 1000 to 10000 |  |  | 1000 to 10000 | < 5000 |  | 
9 | CCn1c(-c2cc(N3CCN(C)CC3)cnc2[C@H](C)OC)c2c3cc(ccc31)-c1csc(n1)C[C@H](NC(=O)[C@H](C(C)C)N(C)C(=O)C1OCC[C@@H]1c1ccccc1)C(=O)N1CCC[C@H](N1)C(=O)OCC(C)(C)C2 (some centres unmarked) [Compound A583] | < 10 |  |  |  |  | 10 to 100 |  |  | 10 to 100 nM | 100 to 1000 nM |  |  | 100 to 1000 |  |  | < 10 | < 5000 |  | 
10 | CCn1c(-c2cccnc2[C@H](C)OC)c2c3nc(ccc31)-c1csc(n1)C[C@H](NC(=O)[C@H](C(C)C)N(C)C(=O)N1CC(OC)C1)C(=O)N1CCC[C@H](N1)C(=O)OCC(C)(C)C2 [Compound A613, N-((2S)-1-(((6^3S,4S,Z)-1^1-ethyl-1^2-(2-((S)-1-methoxyethyl)pyridin-3-yl)-10,10-dimethyl-5,7-dioxo-6^1,6^2,6^3,6^4,6^5,6^6-hexahydro-1^1H-8-oxa-2 (4,2)-thiazola-1 (5,3)-pyrrolo [3,2-b]pyridina-6 (1,3)-pyridazinacycloundecaphane-4-yl)amino)-3-methyl-1-oxobutan-2-yl)-3-methoxy-N-methylazetidine-1-carboxamide] | 100 to 1000 | 1000 to 10000 | 1000 to 10000 nM | 1000 to 10000 |  | 1000 to 10000 | 1000 to 10000 | 1000 to 10000 nM | 1000 to 10000 nM | 1000 to 10000 nM | 1000 to 10000 nM | 1000 to 10000 | 100 to 1000 |  |  | 100 to 1000 |  | 100 to 1000 | 10 to 100
